Experimental data from PubChem BioAssay AID651697 (Sanford-Burnham Center for Chemical Genomics, 2012).

target: Sentrin-specific protease 1 (Homo sapiens) (UniProt Q9P0U3); assay: SENP1 catalytic domain blockers, concentration series – biochemical, kinetic FRET, dose response (AID 651697); details: recombinant SENP1 catalytic domain, kinetic FRET protease assay
Sequence (Q9P0U3 419-644 limits assumed): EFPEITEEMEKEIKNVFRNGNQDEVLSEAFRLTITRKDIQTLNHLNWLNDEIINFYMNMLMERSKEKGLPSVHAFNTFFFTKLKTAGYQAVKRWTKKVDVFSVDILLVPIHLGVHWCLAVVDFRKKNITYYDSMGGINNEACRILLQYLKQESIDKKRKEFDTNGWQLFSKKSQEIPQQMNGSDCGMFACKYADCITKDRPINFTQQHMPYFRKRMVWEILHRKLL

| IC50 [µM] | SMILES |
| --- | --- |
| 8.37 | Oc1ccc(Cl)cc1C1=Nc2ccccc2N=C(c2ccco2)C1 |
| 7.71 | O=C(c1ccccc1)[C@@H]1[C@@H]2C(=O)N(c3ccc(F)cc3)C(=O)[C@@H]2C2CCCN21 (some centres undefined) |
| 18.5 | Cc1nc2ccc(NS(=O)(=O)c3ccc(F)cc3F)cc2s1 |
| 14.2 | COCCNC(=O)c1cccc2c1C(=O)c1ccc(N3CCOCC3)cc1S2(=O)=O |
